{"source": "paper PMC6733504", "about": "“Effects of flavoring compounds used in electronic cigarette refill liquids on endothelial and vascular function” (PLoS ONE, 2019)", "key": {"[1]": {"target": "T1, soluble guanylate cyclase (sGC) (Bos taurus, UniProt P16068+P19687)", "T1 construct": "The activity of sGC purified from bovine lung; from tissue; host or cells: bovine lung", "T1 sequence (P19687 1-691)": "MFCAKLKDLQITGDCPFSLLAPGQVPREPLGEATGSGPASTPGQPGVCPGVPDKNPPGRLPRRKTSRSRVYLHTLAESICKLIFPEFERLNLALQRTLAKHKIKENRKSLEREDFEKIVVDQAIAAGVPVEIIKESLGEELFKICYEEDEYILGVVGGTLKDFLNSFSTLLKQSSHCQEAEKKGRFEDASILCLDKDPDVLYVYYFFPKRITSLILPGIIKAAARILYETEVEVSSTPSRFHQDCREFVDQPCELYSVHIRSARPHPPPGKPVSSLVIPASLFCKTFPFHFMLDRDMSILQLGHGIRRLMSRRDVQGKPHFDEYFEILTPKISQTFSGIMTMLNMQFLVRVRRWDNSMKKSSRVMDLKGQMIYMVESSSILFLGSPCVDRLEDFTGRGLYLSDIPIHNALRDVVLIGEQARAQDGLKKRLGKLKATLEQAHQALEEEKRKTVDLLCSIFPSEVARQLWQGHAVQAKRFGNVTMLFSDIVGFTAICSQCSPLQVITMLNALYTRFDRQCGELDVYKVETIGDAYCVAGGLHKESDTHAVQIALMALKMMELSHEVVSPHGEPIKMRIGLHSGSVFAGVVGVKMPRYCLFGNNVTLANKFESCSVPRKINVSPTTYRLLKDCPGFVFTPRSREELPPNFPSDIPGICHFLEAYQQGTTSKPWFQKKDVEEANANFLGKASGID", "T1 sequence (P16068 1-619)": "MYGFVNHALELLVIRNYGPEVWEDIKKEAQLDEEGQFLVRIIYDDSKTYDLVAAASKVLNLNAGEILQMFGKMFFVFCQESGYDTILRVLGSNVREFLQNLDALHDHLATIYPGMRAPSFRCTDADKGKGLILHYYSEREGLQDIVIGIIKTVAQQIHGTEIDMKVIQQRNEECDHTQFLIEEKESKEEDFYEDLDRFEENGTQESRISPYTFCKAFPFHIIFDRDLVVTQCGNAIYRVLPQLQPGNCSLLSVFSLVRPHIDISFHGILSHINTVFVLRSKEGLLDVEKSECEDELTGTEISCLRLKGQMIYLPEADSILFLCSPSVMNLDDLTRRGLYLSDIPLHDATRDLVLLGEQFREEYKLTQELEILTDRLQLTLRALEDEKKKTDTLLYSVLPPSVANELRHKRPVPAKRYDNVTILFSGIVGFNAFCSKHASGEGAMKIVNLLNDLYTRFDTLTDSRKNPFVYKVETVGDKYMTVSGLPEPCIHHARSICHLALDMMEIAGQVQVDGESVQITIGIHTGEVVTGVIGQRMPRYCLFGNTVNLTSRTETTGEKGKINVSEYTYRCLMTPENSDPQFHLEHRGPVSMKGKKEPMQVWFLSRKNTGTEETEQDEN", "assay": "Activity of purified sGC stimulated with DEA/NO", "assay_type": "biochemical, bovine", "conditions": "control", "description": "The activity of sGC purified from bovine lung was determined as formation of [^32P]cGMP from [α-^32P]GTP. The purified enzyme (50 ng) was incubated at 37°C for 10 min in a final volume of 0.1 ml in the absence or presence of flavorings with the NO donor DEA/NO at concentrations indicated in the figure legends, followed by isolation of [^32P]cGMP and quantification of radioactivity (Cerenkov radiation) in a β counter.\nTo test for reversibility of inhibition, sGC (50 ng) was preincubated in the absence or presence of the respective compounds for 5 minutes at 37°C, followed by 50-fold dilution in the assay mixtures and incubation with DEA/NO at 37°C for 10 minutes."}, "rat aortic rings": {"test_system": "rat aortic rings", "assay": "Relaxation of U-46619 precontracted aortic rings to DEA/NO", "conditions": "read-out: EC50 of vascular relaxation to DEA/NO", "description": "Animal experiments were performed in compliance with the Austrian law on experimentation with laboratory animals (last amendment 2013) based on the European Union guidelines for the Care and the Use of Laboratory Animals (European Union Directive 2010/63/EU). Unsexed Sprague-Dawley rats (obtained from Charles River, Sulzfeld, Germany) were housed at the local animal facility in approved cages. They were fed standard chow (Altromin 3023; obtained from Königshofer Futtermittel, Ebergassing, Austria) and received water ad libitum. Animals were euthanized in a box that was gradually filled with CO2 until vital signs had ceased (cessation of respiration and circulation). […]\nFor isometric tension measurements, vessel rings with intact endothelium were suspended in 5-ml organ baths containing oxygenated Krebs-Henseleit buffer (concentrations in mM: NaCl 118.4, NaHCO3 25, KCl 4.7, KH2PO4 1.2, CaCl2 2.5, MgCl2 1.2, D-Glucose 11; pH 7.4), as previously described in detail. After equilibration for 60 min at the optimal resting tension of 20 mN, maximal contractile activity was determined with a depolarizing solution containing 60 mM K^+. […]\nEffects are expressed as percent of relaxation of U-46619-induced contraction. Concentration-response curves of different ring segments from a single animal were averaged and counted as an individual experiment."}, "[2]": {"test_system": "endothelium-denuded rat aortic rings", "assay": "cAMP and cGMP levels in endothelium-denuded aortic rings", "conditions": "10 µM", "from_the_text": "1 S4 Table. […]\n2 endothelium-denuded rat aortic rings.\nFlavoring (fmol x mg-1) (fmol x mg-1)\n4 En d o th e liu m-denuded rings, treated with test compounds as described in the\n5 Materials and methods section of the main text, were freeze-clamped when maximal\n6 relaxation had been reached. Rings were homogenized in 5% trichloroacetic acid\n7 and analyzed for cAMP and cGMP by radioimmunoassay. Forskolin and DEA/NO\n8 were used to induce maximal accumulation of cAMP and cGMP, respectively. Data\n9 shown are mean values±SEM of 3 (forskolin and DEA/NO) or 6 (basal,\n10 cinnamaldehyde and eugenol) rings; n.d., not determined, *p<0.05 vs. basal (ANOVA\n11 and Dunnett's post hoc test)."}}}
{"smiles": "CCN(CC)[N+]([O-])=NO", "note": "[DEA/NO, 2,2-Diethyl-1-nitroso-oxyhydrazine, reference compound]", "values": [{"measurement": "Maximal sGC activity with DEA/NO", "setting": "[1]; no flavoring", "value": "28±0.9 μmol cGMP x min^-1 x mg^-1"}, {"measurement": "EC50", "setting": "[1]; no flavoring (0.1% DMSO), 95% CI, read-out: EC50 of DEA/NO for sGC stimulation", "value": 37, "unit": "nM"}, {"measurement": "EC50", "setting": "rat aortic rings", "value": 43, "unit": "nM"}, {"measurement": "cGMP", "setting": "[2]", "value": "4917±1483", "unit": "fmol x mg-1"}]}
